Assay results reported in EPA's ToxRefDB 2.

Legend:
rat [1] = conditions: Combined chronic toxicity/carcinogenicity, other, Oral, Feed, dose end: 106 week
rabbit [2] = conditions: Prenatal developmental toxicity study; chinchilla; Oral; Gavage/Intubation; dose end: 18 GD; group: maternal; reproductive / reproductive performance / postimplantation loss / postimplantation loss + systemic / in life observation / body weight / …
dog [3] = conditions: Chronic toxicity; beagle; Oral; Feed; dose end: 26 week; group: systemic; systemic / in life observation / body weight / body weight + systemic / clinical chemistry / [other] / [other] + systemic / clinical …
mouse [4] = conditions: Carcinogenicity, b6c3f1, Oral, Feed, dose end: 24 month, group: systemic
dog [5] = conditions: Chronic toxicity, beagle, Oral, Feed, dose end: 12 month
mouse [6] = conditions: Carcinogenicity, b6c3f1, Oral, Gavage/Intubation, dose end: 2 year, group: systemic
rat [7] = conditions: Subchronic oral toxicity in rodents, fischer, Gavage/Intubation, dose end: 13 week, group: systemic
rat [8] = conditions: Multigenerational reproductive toxicity study, sprague dawley, Oral, Gavage/Intubation, dose end: 2 generation, group: parental
mouse [9] = conditions: Subchronic oral toxicity in rodents, b6c3f1, Gavage/Intubation, dose end: 13 week, group: systemic, systemic / in life observation / clinical signs / lethargy + systemic / organ weight / liver / absolute + systemic / organ weight / liver / …
rat [10] = conditions: Carcinogenicity, fischer, Oral, Gavage/Intubation, dose end: 2 year, group: systemic
rabbit [11] = conditions: Prenatal developmental toxicity study, new zealand white, Oral, Gavage/Intubation, dose end: 18 GD
rat [12] = conditions: Prenatal developmental toxicity study, sprague dawley, Oral, Gavage/Intubation, dose end: 15 GD
rat [13] = conditions: Sub-acute repeat dose toxicity; fischer; Oral; Gavage/Intubation; dose end: 16 day; group: systemic; systemic / in life observation / clinical signs / altered breathing rate + systemic / in life observation / clinical signs / ataxia + …
rat [14] = conditions: Carcinogenicity; fischer; Oral; Gavage/Intubation; dose end: 103 week; group: systemic; systemic / pathology microscopic / kidney / nephropathy + systemic / pathology microscopic / liver / degeneration + systemic / pathology …
rat [15] = conditions: Subchronic oral toxicity in rodents, fischer, Gavage/Intubation, dose end: 13 week, group: systemic; remark: listed apart in the source
mouse [16] = conditions: Subchronic oral toxicity in rodents, b6c3f1, Gavage/Intubation, dose end: 13 week, group: systemic
mouse [17] = conditions: Carcinogenicity, b6c3f1, Oral, Gavage/Intubation, dose end: 103 week, group: systemic
mouse [18] = conditions: Chronic toxicity, cd1, Oral, Feed, dose end: 109 week, group: systemic
rat [19] = conditions: Chronic toxicity, sprague dawley, Oral, Feed, dose end: 110 week
mouse [20] = conditions: Sub-acute repeat dose toxicity; b6c3f1; Oral; Gavage/Intubation; dose end: 16 day; group: systemic; systemic / in life observation / clinical signs / altered breathing rate + systemic / in life observation / clinical signs / ataxia + …
mouse [21] = conditions: Subchronic oral toxicity in rodents, b6c3f1, Feed, dose end: 13 week, group: systemic, systemic / in life observation / body weight / body weight
mouse [22] = conditions: Carcinogenicity, b6c3f1, Oral, Feed, dose end: 103 week, group: systemic
rat [23] = conditions: Carcinogenicity; fischer; Oral; Feed; dose end: 103 week; group: systemic; systemic / in life observation / clinical signs / drooping eyelids (ptosis) + systemic / pathology microscopic / adrenal gland / …
rat [24] = conditions: Fertility (Segment I); sprague dawley; Oral; Gavage/Intubation; dose end: 4 week; group: parental; systemic / organ weight / epididymis / relative to body weight + systemic / pathology microscopic / epididymis / [other] + systemic / …
rat [25] = conditions: Multigenerational reproductive toxicity study, other, Oral, Feed, dose end: 3 generation, group: parental
[26] = group: cholinesterase, cholinesterase / cholinesterase / cholinesterase / plasma cholinesterase (che)
[27] = group: cholinesterase, cholinesterase / cholinesterase / cholinesterase / plasma cholinesterase (che) + cholinesterase / cholinesterase / cholinesterase / …
[28] = group: systemic, systemic / in life observation / body weight / body weight + systemic / in life observation / food consumption / food consumption
[29] = group: systemic, systemic / in life observation / body weight / body weight + systemic / in life observation / food consumption / food consumption + systemic…
[30] = systemic / clinical chemistry / alanine aminotransferase (alt/sgpt) / alanine aminotransferase (alt/sgpt) + systemic / organ weight / liver…
[31] = systemic / clinical chemistry / protein / protein
[32] = group: cholinesterase, cholinesterase / cholinesterase / cholinesterase / erythrocyte cholinesterase (che) + cholinesterase / cholinesterase / cholinesterase / …
[33] = group: systemic, systemic / clinical chemistry / cholesterol / cholesterol
[34] = group: systemic, systemic / clinical chemistry / cholesterol / cholesterol + systemic / in life observation / clinical signs / vomitting
[35] = systemic / in life observation / body weight / body weight + systemic / pathology microscopic / thyroid gland / hyperplasia + systemic / …
[36] = systemic / pathology microscopic / thyroid gland / hyperplasia + systemic / pathology microscopic / liver / cytomegaly + systemic / …
[37] = systemic / organ weight / liver / absolute + systemic / organ weight / liver / relative to body weight
[38] = systemic / in life observation / clinical signs / tremors + systemic / in life observation / body weight / body weight gain
[39] = systemic / in life observation / body weight / body weight + systemic / organ weight / kidney / relative to body weight + systemic / …
[40] = systemic / in life observation / body weight / body weight + systemic / pathology microscopic / blood / leukemia mononuclear
[41] = group: developmental, developmental / developmental malformation / bone / bent + developmental / developmental malformation / eye / microphthalmia
[42] = group: maternal, systemic / in life observation / body weight / body weight + systemic / in life observation / body weight / body weight gain + systemic / in…
[43] = group: developmental, systemic / in life observation / body weight / fetal weight
[44] = group: maternal, systemic / in life observation / clinical signs / urine, discoloration
[45] = group: maternal, systemic / in life observation / clinical signs / urine, discoloration + systemic / in life observation / body weight / body weight + …
[46] = systemic / organ weight / liver / absolute + systemic / organ weight / liver / relative to body weight + systemic / pathology microscopic / …
[47] = systemic / pathology microscopic / liver / eosinophilic focus + systemic / pathology microscopic / liver / syncytial alteration
[48] = systemic / pathology microscopic / liver / eosinophilic focus + systemic / pathology microscopic / liver / syncytial alteration + systemic…
[49] = systemic / in life observation / body weight / body weight gain
[50] = systemic / organ weight / liver / nos
[51] = group: systemic, systemic / clinical chemistry / cholesterol / cholesterol + systemic / clinical chemistry / glucose / glucose + systemic / clinical …
[52] = systemic / in life observation / body weight / body weight
[53] = systemic / in life observation / body weight / body weight + systemic / pathology microscopic / mammary gland / mixed tumor malignant + …
[54] = systemic / in life observation / mortality / mortality + systemic / pathology microscopic / liver / hypertrophy + systemic / pathology …

## CNC(=O)Oc1ccccc1OC(C)C [Propoxur]
Rat [1]; [26]
  NEL: 50 mg/kg/day
Rat [1]; [27]
  LEL: 250 mg/kg/day
  LOAEL: > 250 mg/kg/day
  NOAEL: ≥ 250 mg/kg/day
Rat [1]; [28]
  LEL: 10 mg/kg/day
  NEL: < 10 mg/kg/day
Rat [1]; [29]
  LOAEL: 250 mg/kg/day
  NOAEL: 50 mg/kg/day
Rabbit [2]
  LEL: 30 mg/kg/day
  LOAEL: 30 mg/kg/day
  NEL: 10 mg/kg/day
  NOAEL: 10 mg/kg/day
Dog [3]
  LEL: 1.75 mg/kg/day
  LOAEL: > 1.75 mg/kg/day
  NEL: < 1.75 mg/kg/day
  NOAEL: ≥ 1.75 mg/kg/day
Mouse [4]; [30]
  LOAEL: 472 mg/kg/day
  NOAEL: 114 mg/kg/day
Mouse [4]; [31]
  LEL: 150 mg/kg/day
  NEL: < 150 mg/kg/day
Dog [5]; [32]
  LEL: 781 mg/kg/day
  LOAEL: > 781 mg/kg/day
  NEL: 186 mg/kg/day
  NOAEL: ≥ 781 mg/kg/day
Dog [5]; [33]
  LOAEL: 62.4 mg/kg/day
  NOAEL: < 62.4 mg/kg/day
Dog [5]; [34]
  LEL: 62.4 mg/kg/day
  NEL: < 62.4 mg/kg/day

## Oc1ccc(O)cc1 [Hydroquinone]
Mouse [6]; [35]
  LOAEL: 100 mg/kg/day
  NOAEL: 50 mg/kg/day
Mouse [6]; [36]
  LEL: 50 mg/kg/day
  NEL: < 50 mg/kg/day
Rat [7]; systemic / in life observation / clinical signs / lethargy + systemic / pathology microscopic / kidney / degeneration + systemic / pathology…
  LOAEL: 200 mg/kg/day
Rat [7]; [37]
  LEL: 25 mg/kg/day
  NEL: < 25 mg/kg/day
Rat [7]; systemic / organ weight / liver / absolute + systemic / organ weight / liver / relative to body weight + systemic / in life observation / …
  NOAEL: 100 mg/kg/day
Rat [8]; systemic / in life observation / clinical signs / tremors
  NEL: 50 mg/kg/day
Rat [8]; [38]
  LEL: 150 mg/kg/day
  LOAEL: > 150 mg/kg/day
  NOAEL: ≥ 150 mg/kg/day
Mouse [9]
  LEL: 25 mg/kg/day
  LOAEL: > 400 mg/kg/day
  NEL: < 25 mg/kg/day
  NOAEL: ≥ 400 mg/kg/day
Rat [10]; [39]
  LOAEL: 50 mg/kg/day
  NOAEL: 25 mg/kg/day
Rat [10]; [40]
  LEL: 25 mg/kg/day
  NEL: < 25 mg/kg/day
Rabbit [11]; [41]
  LEL: 150 mg/kg/day
  LOAEL: > 150 mg/kg/day
  NEL: 75 mg/kg/day
  NOAEL: ≥ 150 mg/kg/day
Rabbit [11]; [42]
  LOAEL: > 150 mg/kg/day
  NEL: 25 mg/kg/day
  NOAEL: ≥ 150 mg/kg/day
Rabbit [11]; group: maternal, systemic / in life observation / food consumption / food consumption
  LEL: 75 mg/kg/day
Rat [12]; [43]
  LEL: 300 mg/kg/day
  LOAEL: > 300 mg/kg/day
  NEL: 100 mg/kg/day
  NOAEL: ≥ 300 mg/kg/day
Rat [12]; [44]
  LEL: 30 mg/kg/day
  NEL: < 30 mg/kg/day
Rat [12]; [45]
  LOAEL: > 300 mg/kg/day
  NOAEL: ≥ 300 mg/kg/day

## O=c1ccc2ccccc2o1 [Coumarin]
Rat [13]
  LEL: 400 mg/kg/day
  LOAEL: > 400 mg/kg/day
  NEL: 200 mg/kg/day
  NOAEL: ≥ 400 mg/kg/day
Rat [14]
  LEL: 25 mg/kg/day
  LOAEL: 25 mg/kg/day
  NEL: < 25 mg/kg/day
  NOAEL: < 25 mg/kg/day
Rat [15]; systemic / hematology / erythrocyte (rbc) count differential / erythrocyte (rbc) + systemic / hematology / mean corpuscular (cell) volume (…
  LEL: 75 mg/kg/day
Rat [15]; [46]
  LOAEL: 150 mg/kg/day
  NEL: 38 mg/kg/day
  NOAEL: 75 mg/kg/day
Mouse [16]; systemic / hematology / mean corpuscular (cell) volume (mcv) / mean corpuscular (cell) volume (mcv) + systemic / hematology / mean …
  LEL: 38 mg/kg/day
Mouse [16]; systemic / in life observation / body weight / body weight + systemic / in life observation / body weight / body weight gain + systemic / …
  NEL: 19 mg/kg/day
Mouse [16]; [46]
  LOAEL: 300 mg/kg/day
  NOAEL: 150 mg/kg/day
Mouse [17]; [47]
  LOAEL: 50 mg/kg/day
  NOAEL: < 50 mg/kg/day
Mouse [17]; [48]
  LEL: 50 mg/kg/day
  NEL: < 50 mg/kg/day
Mouse [18]; [49]
  LEL: 85.8 mg/kg/day
Mouse [18]; systemic / in life observation / body weight / body weight gain + systemic / in life observation / food consumption / food efficiency
  NEL: 26.2 mg/kg/day
Mouse [18]; [50]
  LOAEL: > 271 mg/kg/day
  NOAEL: ≥ 271 mg/kg/day
Rat [19]; [26]
  LEL: 16 mg/kg/day
  LOAEL: > 283 mg/kg/day
  NEL: < 16 mg/kg/day
  NOAEL: ≥ 283 mg/kg/day
Rat [19]; [33]
  LEL: 13 mg/kg/day
  NEL: < 13 mg/kg/day
Rat [19]; [51]
  LOAEL: > 234 mg/kg/day
  NOAEL: ≥ 234 mg/kg/day
Mouse [20]
  LEL: 300 mg/kg/day
  LOAEL: 300 mg/kg/day
  NEL: 150 mg/kg/day
  NOAEL: 150 mg/kg/day

## COC(=O)[C@H]1[C@H]2C[C@@H]3c4[nH]c5cc(OC)ccc5c4CCN3C[C@H]2C[C@@H](OC(=O)c2cc(OC)c(OC)c(OC)c2)[C@@H]1OC [Reserpine]
Mouse [21]
  LEL: 0.06 mg/kg/day
  LOAEL: 0.225 mg/kg/day
  NEL: < 0.06 mg/kg/day
  NOAEL: 0.12 mg/kg/day
Mouse [22]; [52]
  LOAEL: 0.75 mg/kg/day
  NOAEL: < 0.75 mg/kg/day
Mouse [22]; [53]
  LEL: 0.75 mg/kg/day
  NEL: < 0.75 mg/kg/day
Rat [23]
  LEL: 0.25 mg/kg/day
  LOAEL: > 0.5 mg/kg/day
  NEL: < 0.25 mg/kg/day
  NOAEL: ≥ 0.5 mg/kg/day

## COS(C)(=O)=O [Methyl methanesulfonate]
Rat [24]
  LEL: 20 mg/kg/day
  LOAEL: > 20 mg/kg/day
  NEL: < 20 mg/kg/day
  NOAEL: ≥ 20 mg/kg/day

## ClC1C(Cl)C(Cl)C(Cl)C(Cl)C1Cl (stereo not drawn) [beta-Hexachlorocyclohexane]
Rat [25]; [49]
  LEL: 6.25 mg/kg/day
  NEL: < 6.25 mg/kg/day
Rat [25]; [54]
  LOAEL: > 12.5 mg/kg/day
  NOAEL: ≥ 12.5 mg/kg/day
